Data published in patent publication EP3459551A1, “USE OF ARSENIC TRIOXIDE IN THE PREVENTION OR TREATMENT OF DISEASES ASSOCIATED WITH TYPE I […] ACTIVATION” (Medsenic, priority 2017, dated 2019).

Assays:
naïve CD4+ T cells = experiment: pDC capacity to polarize naïve CD4+ T cells (intracellular staining and ELISA of MLR supernatants); assay type: cell-based, human; conditions: pDCs previously treated with ATO
Procedure: (§1) pDCs were isolated from fresh peripheral blood mononuclear cells (PBMCs) by magnetic selection. Cell viability, phenotype and intracellular cytokine analyses were performed with flow cytometry. ELISA was used to analyze the cytokine concentration in supernatants.
In addition, the effect of ATO treatment on pDC capacity to polarize naïve CD4+ T cells was assessed.

activated pDCs = experiment: Phenotype of activated pDCs (flow cytometry of maturation markers); assay type: cell-based, human
Procedure: as §1
Given the above results, it was addressed whether activated pDCs phenotype could be similarly impacted by ATO treatment.

[1] = test system: pDCs after TLR9 activation; experiment: Cytokine and chemokine secretion by pDCs after TLR9 activation (ELISA of supernatants); assay type: cell-based, human; conditions: 0.5µM of ATO, 24h, n=4
Procedure: as §1
Then, the effect of low dose ATO (corresponding to a non-lethal, therapeutic dose) on cytokine and chemokine secretion by pDCs after TLR9 activation was studied. ELISA test of supernatants of sorted pDCs cultured with ATO for 24h were studied (n=4).

[2] = test system: CD4+ naïve T cells co-cultured with ATO-treated activated pDCs; experiment: Mixed lymphocyte reaction (MLR) of pDCs and CD4+ naïve T cells: T cell proliferation; assay type: cell-based, human; conditions: pDCs treated with 0.5µM of ATO, n=4; 0µM control 44.97±2.53%
Procedure: as §1
In order to evaluate whether ATO can influence the capability of pDCs to activate T cells, mixed lymphocyte reaction (MLR) of pDCs and CD4+ naïve T cells were performed.

human pDCs = experiment: Viability of human pDCs (Fixable Viability Dye, flow cytometry); assay type: cell-based; conditions: 24h of culture
Procedure: as §1
First, the effect of ATO on the viability of human pDCs was investigated. […] (% of living pDCs: 56.36±6.44% with 0µM vs 32.02±7.12% with 1µM of ATO, p=0.039)

[3] = 24h culture with non-lethal doses of ATO

Q: What does the source list for arsenic trioxide [ATO]?
A: IL-10 concentration in the supernatants of MLR (naïve CD4+ T cells; ELISA): no change; IL-17, IL-22 concentrations in the supernatants of MLR (naïve CD4+ T cells; ELISA): significant decrease; IL-22 positive cells in T cells (naïve CD4+ T cells; intracellular staining, untreated 11.67%): 7.22%; IFN-γ positive cells in T cells (naïve CD4+ T cells; intracellular staining, untreated 41.13%): 29.09%; TNF-α positive cells in T cells (naïve CD4+ T cells; intracellular staining, untreated 47.10%): 35.40%; PD-L1+ pDCs (activated pDCs; 0.5µM of ATO, 24h, n=4, 0µM control 61.44±2.37%, p=0.005): 73.27 ±3.72%; % of CD86+ and CCR7+ pDCs (activated pDCs; [3]): significant decrease; relative fluorescence intensity (RFI) of CD80, CD86, and HLA-DR expressions (activated pDCs; [3]): significant decrease; RFI for PD-L1 expression (activated pDCs; 24h culture with non-lethal doses of ATO, p=0.09): increase; IL-6 secretion ([1]; 0µM control 2.31 ±0.39ng/ml, p=0.029): 1.66 ± 0.32 ng/mL; TNF-α secretion ([1]; 0µM control 6.23±0.92ng/ml, p=0.005): 3.99 ± 0.79 ng/mL; CXCL10 secretion ([1]; 0µM control 13.06±0.98ng/ml, p=0.036): 9.44 ± 0.97 ng/mL; IFN-α secretion ([1]; 0µM control 53.24±6.61ng/ml, p=0.004): 25.81 ± 7.70 ng/mL; % of proliferating T cells [2]: 37.98±2.11%; % of living pDCs (human pDCs; 1µM of ATO, 0µM control 56.36±6.44%, p=0.039): 32.02±7.12%; ATO concentration that significantly decreased viability of both non-activated and activated pDCs (human pDCs): ≥ 1 µM
